Experiments:
[1] = system: NO production in RAW264.7 macrophages; experiment: Inhibition of NO production in IFNγ-treated RAW264.7 macrophages (Griess reagent); assay type: cell-based, mouse; settings: Mus musculus, RAW264.7, RAW264.7 macrophages pre-treated 2 hours, then 20 ng/ml IFNγ for 24 hours
Experimental: (§1) FIGS. 1-4, 6 and 8. Inhibition of NO Production. RAW264.7 macrophages were pre-treated with DMSO or drugs at various concentrations (nM) for 2 hours, then treated with 20 ng/ml IFNγ for 24 hours. NO concentration in media was determined using a Griess reagent system; cell viability was determined using WST-1 reagent.
(§2) Nitric Oxide production and cell viability. RAW264.7 macrophages were pre-treated with DMSO or drugs for 2 hours, then treated with recombinant mouse IFNγ (Sigma) for 24 hours. NO concentration in media was determined using the Griess reagent system (Promega). Cell viability was determined using WST-1 reagent (Roche).

[2] = system: RAW264.7 macrophages; experiment: Cell viability of RAW264.7 macrophages (WST-1 reagent); assay type: cell-based, mouse; settings: Mus musculus, RAW264.7, 24 h, cell viability, RAW264.7, 20 ng/ml IFNγ 24 hours, WST-1 reagent; read-out: RAW264.7 (20 ng/ml IFNγ) WST-1 IC50
Experimental: as §1, §2

[3] = system: HO-1; experiment: Nrf2 target gene induction, MDA-MB-435 (qPCR): HO-1; assay type: cell-based; settings: Homo sapiens; MDA-MB-435, 250 nM, 16 hours, mRNA by qPCR
Experimental: (§3) Nrf2 target gene induction. MDA-MB-435 human melanoma cells were treated with vehicle (DMSO) or the indicated compounds and concentrations for 16 hours. HO-1, thioredoxin reductase-1 (TrxR1), γ-glutamylcysteine synthetase (γ-GCS), and ferritin heavy chain mRNA levels were quantified using qPCR and were normalized relative to a DMSO-treated sample run in parallel. Values are averages of duplicate wells. Primer sequences are as follows.

[4] = system: NQO1; experiment: Nrf2 target gene induction, MDA-MB-435 (qPCR): NQO1; assay type: cell-based; settings: Homo sapiens; MDA-MB-435, 250 nM, 16 hours, mRNA by qPCR
[5] = system: γ-GCS; experiment: Nrf2 target gene induction, MDA-MB-435 (qPCR): γ-GCS; assay type: cell-based; settings: Homo sapiens; MDA-MB-435, 250 nM, 16 hours, mRNA by qPCR
Experimental: as §3

Structure (SMILES)	IC50 [1]	IC50 [2]	fold induction at 0.25 µM [3]	fold induction at 0.25 µM [4]	fold induction at 0.25 µM [5]
CC1(C)CC[C@]2(CN)CC[C@]3(C)[C@H](C(=O)C[C@@H]4[C@@]5(C)C=C(C#N)C(=O)C(C)(C)[C@@H]5CC[C@]43C)[C@@H]2C1 [Compound 63214, (6aR,6bR,8aS,12aS,12bR,14bR)-8a-(aminomethyl)-4,4,6a,6b,11,11,14b-heptamethyl-3,13-dioxo-3,4,4a,5,6,6a,6b,7,8,8a,9,10,11,12,12a,12b,13,14,14a,14b-icosahydropicene-2-carbonitrile]	~0.025 µM	> 0.2 µM	2	1.8	3
CC1(C)CC[C@]2(CNCC#N)CC[C@]3(C)[C@H](C(=O)C[C@@H]4[C@@]5(C)C=C(C#N)C(=O)C(C)(C)[C@@H]5CC[C@]43C)[C@@H]2C1 [Compound 63218, (4aR,6aR,6bR,8aS,12aS,12bR,14aR,14bR)-8a-((cyanomethylamino)methyl)-4,4,6a,6b,11,11,14b-heptamethyl-3,13-dioxo-3,4,4a,5,6,6a,6b,7,8,8a,9,10,11,12,12a,12b,13,14,14a,14b-icosahydropicene-2-carbonitrile]	~0.025 µM	> 0.2 µM	3	3.4	10
CC1(C)CC[C@]2(CNS(C)(=O)=O)CC[C@]3(C)[C@H](C(=O)CC4[C@@]5(C)C=C(C#N)C(=O)C(C)(C)C5CC[C@]43C)[C@@H]2C1 (stereo partly drawn) [Compound 63220, N-(((4aS,6aR,6bR,12aR,14aR,14bS)-11-cyano-2,2,6a,6b,9,9,12a-heptamethyl-10,14-dioxo-1,2,3,4,4a,5,6,6a,6b,7,8,8a,9,10,12a,12b,13,14,14a,14b-icosahydropicen-4a-yl)methyl)methanesulfonamide]	~0.015 µM	> 0.2 µM	3	2	6
CC1(C)CC[C@]2([C@@H](O)CO)CC[C@]3(C)[C@H](C(=O)C[C@@H]4[C@@]5(C)C=C(C#N)C(=O)C(C)(C)[C@@H]5CC[C@]43C)[C@@H]2C1 [Compound 63221, (4aR,6aR,6bR,8aS,12aS,12bR,14aR,14bR)-8a-((R)-1,2-dihydroxyethyl)-4,4,6a,6b,11,11,14b-heptamethyl-3,13-dioxo-3,4,4a,5,6,6a,6b,7,8,8a,9,10,11,12,12a,12b,13,14,14a,14b-icosahydropicene-2-carbonitrile]	~0.015 µM	> 0.2 µM	2	2	4.5
CC1(C)CC[C@@]23CC[C@@]4(C)[C@]5(C)CC[C@H]6C(C)(C)C(=O)C(C#N)=C[C@]6(C)[C@H]5CC(=O)[C@]4(OC2CO)[C@@H]3C1 (stereo partly shown) [Compound 63224]	~0.02 µM	> 0.2 µM	4	2.5	8
CC1(C)CC[C@]2(CNS(=O)(=O)CC(F)(F)F)CC[C@]3(C)[C@H](C(=O)C[C@@H]4[C@@]5(C)C=C(C#N)C(=O)C(C)(C)[C@@H]5CC[C@]43C)[C@@H]2C1 [Compound 63225, N-(((4aS,6aR,6bR,8aR,12aR,12bR,14aR,14bS)-11-cyano-2,2,6a,6b,9,9,12a-heptamethyl-10,14-dioxo-1,2,3,4,4a,5,6,6a,6b,7,8,8a,9,10,12a,12b,13,14,14a,14b-icosahydropicen-4a-yl)methyl)-2,2,2-trifluoroethanesulfonamide]	~0.02 µM	> 0.2 µM	4	2.4	6.5
CC1(C)CC[C@]2(CNC(=O)C(F)(F)F)CC[C@]3(C)[C@H](C(=O)C[C@@H]4[C@@]5(C)C=C(C#N)C(=O)C(C)(C)[C@@H]5CC[C@]43C)[C@@H]2C1 [Compound 63226, N-(((4aS,6aR,6bR,12aR,14aR,14bS)-11-cyano-2,2,6a,6b,9,9,12a-heptamethyl-10,14-dioxo-1,2,3,4,4a,5,6,6a,6b,7,8,8a,9,10,12a,12b,13,14,14a,14b-icosahydropicen-4a-yl)methyl)-2,2,2-trifluoroacetamide]	~0.012 µM	> 0.2 µM	4	2	6
COC[C@]12CCC(C)(C)C[C@H]1[C@H]1C(=O)C[C@@H]3[C@@]4(C)C=C(C#N)C(=O)C(C)(C)[C@@H]4CC[C@@]3(C)[C@]1(C)CC2 [Compound 63228, (4aR,6aR,6bR,8aS,12aS,12bR,14aR,14bR)-8a-(methoxymethyl)-4,4,6a,6b,11,11,14b-heptamethyl-3,13-dioxo-3,4,4a,5,6,6a,6b,7,8,8a,9,10,11,12,12a,12b,13,14,14a,14b-icosahydropicene-2-carbonitrile]	~0.025 µM	0.2 µM	2	2	4
CC1(C)CC[C@]2(CCO)CC[C@]3(C)[C@H](C(=O)C[C@@H]4[C@@]5(C)C=C(C#N)C(=O)C(C)(C)[C@@H]5CC[C@]43C)[C@@H]2C1 [Compound 63231, (4aR,6aR,6bR,8aR,12aS,12bR,14aR,14bR)-8a-(2-hydroxyethyl)-4,4,6a,6b,11,11,14b-heptamethyl-3,13-dioxo-3,4,4a,5,6,6a,6b,7,8,8a,9,10,11,12,12a,12b,13,14,14a,14b-icosahydropicene-2-carbonitrile]	~0.015 µM	> 0.2 µM	1.2	2.1	5
Cc1cc(CNC[C@]23CCC(C)(C)C[C@H]2[C@H]2C(=O)C[C@@H]4[C@@]5(C)C=C(C#N)C(=O)C(C)(C)[C@@H]5CC[C@@]4(C)[C@]2(C)CC3)no1 [Compound 63232, (4aR,6aR,6bR,8aS,12aS,12bR,14aR,14bR)-4,4,6a,6b,11,11,14b-heptamethyl-8a-(((5-methylisoxazol-3-yl)methylamino)methyl)-3,13-dioxo-3,4,4a,5,6,6a,6b,7,8,8a,9,10,11,12,12a,12b,13,14,14a,14b-icosahydropicene-2-carbonitrile]	~0.02 µM	> 0.2 µM	5	3.8	13.6
CC1(C)CC[C@]2(CNC(=O)OC(C)(C)C)CC[C@]3(C)[C@H](C(=O)CC4[C@@]5(C)C=C(C#N)C(=O)C(C)(C)C5CC[C@]43C)[C@@H]2C1 (stereo partly drawn) [Compound 63253, tert-butyl((4aS,6aR,6bR,12aR,14aR,14bS)-11-cyano-2,2,6a,6b,9,9,12a-heptamethyl-10,14-dioxo-1,2,3,4,4a,5,6,6a,6b,7,8,8a,9,10,12a,12b,13,14,14a,14b-icosahydropicen-4a-yl)methylcarbamate]	~0.02 µM	~0.2 µM	2	1.5	3
CC1(C)CC[C@]2(COC(=O)C(C)(C)C)CC[C@]3(C)[C@H](C(=O)C[C@@H]4[C@@]5(C)C=C(C#N)C(=O)C(C)(C)[C@@H]5CC[C@]43C)[C@@H]2C1 [Compound 63297, ((4aS,6aR,6bR,8aR,12aR,12bR,14aR,14bS)-11-cyano-2,2,6a,6b,9,9,12a-heptamethyl-10,14-dioxo-1,2,3,4,4a,5,6,6a,6b,7,8,8a,9,10,12a,12b,13,14,14a,14b-icosahydropicen-4a-yl)methyl pivalate]	~0.05 µM	~0.2 µM			
CC1(C)CC[C@]2(COC(=O)c3ccccc3)CC[C@]3(C)[C@H](C(=O)C[C@@H]4[C@@]5(C)C=C(C#N)C(=O)C(C)(C)[C@@H]5CC[C@]43C)[C@@H]2C1 [Compound 63298, ((4aS,6aR,6bR,8aR,12aR,12bR,14aR,14bS)-11-cyano-2,2,6a,6b,9,9,12a-heptamethyl-10,14-dioxo-1,2,3,4,4a,5,6,6a,6b,7,8,8a,9,10,12a,12b,13,14,14a,14b-icosahydropicen-4a-yl)methyl benzoate]	~0.08 µM	~0.2 µM			
C#C[C@]12CCC(C)(C)C[C@H]1[C@H]1C(=O)C[C@@H]3[C@@]4(C)C=C(C#N)C(=O)C(C)(C)[C@@H]4CC[C@@]3(C)[C@]1(C)CC2 [Compound 63303, (4aR,6aR,6bR,8aS,12aS,12bR,14aR,14bR)-8a-ethynyl-4,4,6a,6b,11,11,14b-heptamethyl-3,13-dioxo-3,4,4a,5,6,6a,6b,7,8,8a,9,10,11,12,12a,12b,13,14,14a,14b-icosahydropicene-2-carbonitrile]	~0.018 µM	~0.15 µM			
